Here are results for one compound from patent publication US20190119348A1, “PARATHYROID HORMONE RECEPTOR 1 ANTAGONIST AND INVERSE AGONIST POLYPEPTIDES AND METHODS OF THEIR USE” (The General Hospital Corporation, priority 2016, published 2019).

Usually IC50 stands for the concentration needed to halve the response being measured.

The target of this experiment is T1, endogenous hPTHR1 (Homo sapiens, UniProt Q03431).
T1 construct: Saos-2, in which is endogenously expressed the hPTHR1; endogenous in cells
T1 sequence (Q03431 27-593): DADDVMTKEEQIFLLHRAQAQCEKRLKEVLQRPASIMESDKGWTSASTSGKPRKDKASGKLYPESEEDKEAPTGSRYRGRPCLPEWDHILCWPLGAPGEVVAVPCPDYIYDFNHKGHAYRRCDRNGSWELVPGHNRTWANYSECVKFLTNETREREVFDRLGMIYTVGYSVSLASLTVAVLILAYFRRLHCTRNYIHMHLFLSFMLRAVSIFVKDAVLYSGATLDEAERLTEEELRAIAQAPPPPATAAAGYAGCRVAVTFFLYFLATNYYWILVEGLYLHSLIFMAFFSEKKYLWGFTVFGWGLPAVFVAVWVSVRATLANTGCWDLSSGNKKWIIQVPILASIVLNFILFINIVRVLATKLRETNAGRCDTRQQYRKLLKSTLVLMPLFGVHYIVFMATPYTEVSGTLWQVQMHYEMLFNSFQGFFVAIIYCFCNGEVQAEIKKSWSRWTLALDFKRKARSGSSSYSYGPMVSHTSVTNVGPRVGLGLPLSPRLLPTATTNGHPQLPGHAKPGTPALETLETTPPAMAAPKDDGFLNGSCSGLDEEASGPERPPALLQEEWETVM
Put plainly: Antagonism of PTH(1-34)- and PTHrP(1-36)-induced cAMP response (GloSensor) in SGS-72 cells. It counts as cell-based. As to conditions: IC50 PTH(1-34) (Table 6, nanomolar value), antagonist pre-treatment 15 minutes, PTH(1-34) 0.3 nM. In short, it runs like this:
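SaOS2-derived SGS-72 cells, which express endogenous hPTHR1 and a stable GloSensor cAMP reporter, were loaded with 0.5 mM luciferin for 15 min at room temperature in CO2-independent medium with 0.1% BSA. Antagonist was tested against PTH(1-34) or PTHrP(1-36), with luminescence taken at the agonist-alone maximum; pIC50 came from four-parameter fits.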

Where a SMILES comes first, the peptide text is derived from it. [ ]: non-standard residue; d: D form.

With `CC[C@H](C)[C@H](N)C(=O)N[C@@H](CCC(N)=O)C(=O)N[C@@H](CC(C)C)C(=O)N[C@@H](CCSC)C(=O)N[C@@H](Cc1c[nH]cn1)C(=O)N[C@@H](CCC(N)=O)C(=O)N[C@@H](CC(C)C)C(=O)N[C@H](Cc1c[nH]c2ccccc12)C(=O)N[C@@H](CCCCN)C(=O)N[C@@H](Cc1c[nH]c2ccccc12)C(=O)N[C@H](C(=O)N[C@@H](CCC(N)=O)C(=O)N[C@@H](CC(=O)O)C(=O)N[C@@H](C)C(=O)N[C@@H](CCCNC(=N)N)C(=O)N[C@@H](CCCNC(=N)N)C(=O)N[C@@H](CCCNC(=N)N)C(=O)N[C@@H](C)C(=O)N[C@@H](Cc1c[nH]c2ccccc12)C(=O)N[C@@H](CC(C)C)C(=O)N[C@@H](Cc1c[nH]cn1)C(=O)N[C@@H](CCCCN)C(=O)N[C@@H](CC(C)C)C(=O)N[C@H](C(=O)N[C@@H](C)C(=O)N[C@@H](CCC(=O)O)C(=O)N[C@H](C(=O)N[C@@H](Cc1c[nH]cn1)C(=O)N[C@H](C(=O)N[C@@H](C)C(=O)N[C@@H](CCC(=O)O)C(=O)N[C@H](C(N)=O)[C@@H](C)CC)[C@@H](C)O)[C@@H](C)CC)[C@@H](C)CC)[C@@H](C)CC` [compound 2003, L11, dW12, W23-LA-PTH(5-36)-2003] (H-IQLMHQL[dW]KWIQDARRRAWLHKLIAEIHTAEI-NH2; N-terminus assumed), the IC50 is 2.57 nM.
